SMILES strings stand for the structures.

The test system of experiment [1] is human MAFbx promoter. Briefly: Human MAFbx promoter luciferase reporter assay in C2C12 / C2C12.AR cells. It is filed as cell-based. An excerpt:
The reporter genes pMAF3.1, pMAF2.4, pMAF948, pMAF400, and pMAF400-241 express firefly luciferase under the control of promoter regions of the human MAFbx gene and are described in Example 1. The rARC562G vector, encoding rat AR with a C562->G mutation in the first zinc binding module that disrupts binding of AR to DNA was described by Palvimo et al. (Mol Endocrinol 7: 1399-1407, 1993) pAR.4RKM (expressing AR with 4 R/K->M mutations in the nuclear localization sequence that is unable to enter the nucleus) and pAR.ABC (lacking the ligand binding domain) were described by Zhou et al. (J Biol Chem 269: 13115-13123, 1994). The pBabe.puro retroviral backbone described by Morgenstern and Land (Nucleic Acids Res 18: 3587-3596, 1990) was modified by introduction of a Not1 site. The ARE reporter gene expressing firefly luciferase under control of the MMTV hormone response element, and pSP72hAR-1, containing an insert of the full-length cDNA clone of the human AR, were provided by Dr. Diane Robins (University of Michigan). pRL-CMV expressing Renilla luciferase was from Promega (Madison, Wis.).
C2C12 cells (American Type Culture Collection, Manassas, Va.) were maintained in Dulbeco's modified Eagle's Medium (DMEM) containing 10% fetal bovine serum (FBS) and penicillin (100 U/ml)/streptomycin (100 μg/ml) (growth medium). Cells were incubated at 37° C. in humidified air containing 10% CO2. 293T cells (American Type Culture Collection) were maintained in growth medium as above. Transfection was achieved using Lipofectamine-Plus (Invitrogen, Carlsbad, Calif.) using 200 ng total DNA per well.
Cells were seeded into wells of 24-well plates (5×10^5 cells/well) then maintained overnight in DMEM with 10% CDS-FBS. Cells were co-transfected with the various reporter genes and pRL-CMV. Cells were incubated in the transfection mixture overnight, then covered with DMEM supplemented with 10% charcoal-dextran-stripped FBS (CDS-FBS) and either ethanol (EtOH) or hormones dissolved in EtOH. Cells were maintained for an additional 24 hours, at which time both firefly and renilla luciferase activity were determined using the Dual Luciferase Assay (Promega, Madison, Wis.) and a Berthold 96-well plate luminometer. Firefly luciferase activities were normalized relative to renilla luciferase. Ethanol concentrations were less than 0.1%.

Experiment [2] deals with junB. Put plainly: Acute denervation: junB mRNA in EDL and soleus (qPCR). It is filed as in vivo, rat.
Experiment [3] concerns IGFBP-5. Briefly: Chronic denervation: IGFBP-5 mRNA in gastrocnemius (qPCR). The format is in vivo, rat. The procedure:
Male Wistar rats weighing 200-250 gm (Taconic Farms, Germantown, N.Y.) were provided food and water ad libitum and were housed in a temperature and humidity controlled environment providing a 12:12 hour day-night cycle. For surgical procedures, animals were anesthetized with ketamine/xylazine. The left sciatic nerve was exposed by blunt dissection, and a 1 to 2 mm piece of this nerve was excised just below the level of the femoral head. A sham surgery was performed on the right hind limb in which the sciatic nerve was exposed but was not transected. Twenty eight days later, animals were anesthetized, and Alzet pumps were implanted subcutaneously on the back. […] Testosterone levels after replacement were approximately 15 nM, a high-normal range for rats of this age. Animals were sacrificed 3, 7 or 28 days after implantation of the miniosmotic pumps by inhalation of carbon dioxide. Gastrocnemius muscles were excised and weighed, then flash frozen on dry ice and stored at −80° C.
Total RNA was extracted from skeletal muscle (20 mg) by homogenization in guanidine thiocyanate using a Polytron followed by extraction of total RNA with phenol-chloroform as described by (Chomczynski and Sacchi, Anal Biochem 162: 156-159, 1987). Total RNA was further enriched using RNAeasy minicolumns (Qiagen, Valencia, Calif.). This procedure included digestion of contaminating DNA on the column with RNAse-free DNAse (Qiagen). Total RNA was eluted and quantified by absorbance at 260 nm. One μg of total RNA was used to prepare a cDNA library by reverse transcription (High Capacity cDNA Archive Kit, Applied Biosystems). Libraries were diluted 25-fold with water. Real time PCR was performed Taqman 2×PCR buffer (Applied Biosystems) using an Applied Biosystems 7500 thermocycler. Levels of gene expression in the denervated muscle were expressed as fold induction relative to muscle from the sham-denervated leg of animals administered vehicle. […] Fold-induction was determined using the 2^−ΔΔCt method, using expression of 18S RNA as the normalization control. […]
In general terms: In qPCR the cycle at which signal appears reflects the starting amount.

Regarding `C[C@]12CC[C@H]3[C@@H](CCC4=CC(=O)CC[C@@]43C)[C@@H]1CC[C@@H]2O` [testosterone], the “repression of pMAF3.1 reporter activity” value is “about 40%” in experiment [1] (C2C12.AR cells, 5 nM testosterone) and “greater than 50%” in experiment [1] (C2C12.AR cells, 500 nM testosterone). Besides, the “suppression of MAFbx reporter with 3′ deletion of 208 bases encoding the 5′ UTR” value in experiment [1] (C2C12.AR cells, 500 nM) is on record as “abolished suppression”. Moreover, in experiment [1] (C2C12.AR cells, 500 nM, three 5′ truncations including pMAF400), the “repression of 5′ truncated MAFbx reporters” value is “apparent”. Also, the “dexamethasone induced luciferase expression (pMAF3.1)” value was “partially inhibited” in experiment [1] (C2C12.AR cells, testosterone 5 nM); “full suppression” in experiment [1] (C2C12.AR cells, testosterone 50 nM); “suppressed below that of untreated cells” in experiment [1] (C2C12.AR cells, testosterone 500 nM). In addition, the “suppression of reporter under control of 3.1 of the MAFbx upstream promoter” value in experiment [1] (C2C12 muscle cells, 500 nM) came to 40%. The “expression of MAFbx reporter (general statement)” value in experiment [1] (cells transduced with the MAFbx reporter construct) was “decreased”. In experiment [1] (wild-type C2C12 cells, 5 to 500 nM), the “effect on activity of pMAF3.1 reporter” value was “no effect”. Also, the “repression of pMAF3.1 reporter” value in experiment [1] (wild-type C2C12 co-transfected with AR defective in nuclear entry (4RKM), 500 nM) is given as “No repression”; in experiment [1] (wild-type C2C12 co-transfected with AR lacking ligand binding domain (ABC), 500 nM), “absent”; in experiment [1] (wild-type C2C12 co-transfected with DNA binding domain mutant AR (C562G), 500 nM), “repression was observed”. Also, the “pMAF3.1 reporter gene activity” value in experiment [1] (wild-type C2C12 co-transfected with wild-type AR, 500 nM) is given as “significantly depressed”.
As to `C[C@]12CC[C@H]3[C@@H](CCC4=CC(=O)CC[C@@H]43)[C@@H]1CC[C@@H]2O` [nandrolone], the junB expression result in experiment [2] (denervated EDL) is “significantly reduced”; in experiment [2] (denervated soleus) it was “tended to reduce”. Further, the “increase in junB expression” value in experiment [2] (soleus and EDL from sham-denervated limbs, tendency) is reported as “approximately 2 fold”. Further, the IGFBP-5 expression result is reported as “tended to reduce” in experiment [3] (denervated muscle, 56-days); “did not significantly alter” in experiment [3] (denervated muscle, any time tested); “did not appreciably alter” in experiment [3] (sham-denervated muscle).
